Assay [1] relates to loperamide-induced retching. In words: Antiemetic effects: loperamide-induced retching in ferrets. Type of assay: in vivo. The following applies: for Ratio p.o./s.c. of ED50 for blockade of retching: p.o. (−2 h) over s.c. (−1 h). As to the method:
The antiemetic effects have been determined using the loperamide-induced retching model (i.e. retching induced by an opioid) in ferrets. To exclude species differences in antiemetic activiey, both compounds have also been tested for antiemetic activity against apomorphine in dogs.
Antagonism of emesis induced by the peripherally selective opioid loperamide (0.31 mg/kg, s.c.) was studied over a 1 h-period starting immediately after the emetic challenge in ferrets pretreated with test compound or solvent. In control animals pre-treated with solvent, loperamide induced pronounced retching (mean±SD: 95±39 counts; n=[…]) and, to a lesser extent, vomiting (5±4).

Assay [2] deals with T1, cloned human h-NK1 receptors expressed in CHO cells (Homo sapiens, UniProt P25103).
T1 construct: expressed in transfected cells; host or cells: CHO cells
The experiment in a line: Binding experiment for h-NK1 receptors ([3H]-Substance P displacement). The following applies: read-out: h-NK1 pIC50 (converted). As to the method:
(§1) The compounds according to the invention were investigated for interaction with various neurotransmitter receptors, ion channels and transporter binding sites using the radioligand binding technique. Membranes from tissue homogenates or from cells, expressing the receptor or transporter of interests, were incubated with a radioactively labelled substance ([^3H]- or [^125I] ligand) to label a particular receptor. […] Following incubation, labelled membranes were harvested and rinsed with excessive cold buffer to remove non-bound radioactivity by rapid filtration under suction. Membrane bound radioactivity was counted in a scintillation counter and results were expressed in counts per minute (cpm).
(§2) The compounds were dissolved in DMSO and tested at 10 concentrations ranging from 10^−10 to 10^−5 M.
(§3) The ability of the compounds according to the invention to displace [^3H]-Substance P from cloned human h-NK1 receptors expressed in CHO cells, to displace [^3H]-SR-48968 from cloned human h-NK2 receptors expressed in Sf9 cells, and to displace [^3H]-SR-142801 from cloned human h-NK3 receptors expressed in CHO cells was evaluated.

Assay [3] concerns the target T2, cloned human h-NK2 receptors expressed in Sf9 cells (Homo sapiens, UniProt P21452).
T2 construct: expressed in transfected cells; host or cells: Sf9 cells
T2 sequence (P21452 1-398): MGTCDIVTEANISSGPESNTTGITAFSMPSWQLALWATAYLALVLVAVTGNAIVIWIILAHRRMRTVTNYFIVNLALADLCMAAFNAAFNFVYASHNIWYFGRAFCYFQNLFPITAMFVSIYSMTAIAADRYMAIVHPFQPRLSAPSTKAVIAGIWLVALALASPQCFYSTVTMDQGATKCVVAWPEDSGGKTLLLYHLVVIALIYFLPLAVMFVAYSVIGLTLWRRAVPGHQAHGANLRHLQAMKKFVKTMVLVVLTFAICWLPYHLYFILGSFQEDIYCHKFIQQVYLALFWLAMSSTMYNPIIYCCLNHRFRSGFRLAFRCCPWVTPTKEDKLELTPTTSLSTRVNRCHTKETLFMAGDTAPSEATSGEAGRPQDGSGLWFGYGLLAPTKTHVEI
In words: Binding experiment for h-NK2 receptors ([3H]-SR-48968 displacement). To be noted: [3H]-SR-48968, Sf9 cells; read-out: h-NK2 pIC50 (converted). As to the method: as §1, §2, §3

Where [4] appears, read: ferrets, loperamide 0.31 mg/kg s.c., 1 h after subcutaneous administration, blockade = 0 retches.
Where [5] appears, read: ferrets, loperamide 0.31 mg/kg s.c., 2 h after oral administration, blockade = 0 retches.
Where [6] appears, read: read-out: ED50 (95% confidence limits) for blockade of loperamide-induced retching, p.o. route (−2 h), ferrets, loperamide 0.31 mg/kg s.c., 2 h after oral administration, blockade = 0 retches.
The mark [7] stands for this setting: sc, read-out: ED50 for blockade of loperamide-induced retching, ferrets, loperamide 0.31 mg/kg s.c., 1 h after subcutaneous administration, blockade = 0 retches.

Results on 17 molecules are retold here after patent US20060128721A1, “Novel formulations of opioid-based treatments of pain comprising substituted 1,4-di-piperidin-4-yl-piperazine derivatives” (priority 2003, published 2006).

Usually ED50 stands for the dose at which the effect has come halfway, by size or by number of responders.

The structures appear in SMILES notation. Where two headings read alike, the source gives them in different places. A value given as a limit tells only on which side of the number the result lay.

T1 sequence (P25103 whole entry): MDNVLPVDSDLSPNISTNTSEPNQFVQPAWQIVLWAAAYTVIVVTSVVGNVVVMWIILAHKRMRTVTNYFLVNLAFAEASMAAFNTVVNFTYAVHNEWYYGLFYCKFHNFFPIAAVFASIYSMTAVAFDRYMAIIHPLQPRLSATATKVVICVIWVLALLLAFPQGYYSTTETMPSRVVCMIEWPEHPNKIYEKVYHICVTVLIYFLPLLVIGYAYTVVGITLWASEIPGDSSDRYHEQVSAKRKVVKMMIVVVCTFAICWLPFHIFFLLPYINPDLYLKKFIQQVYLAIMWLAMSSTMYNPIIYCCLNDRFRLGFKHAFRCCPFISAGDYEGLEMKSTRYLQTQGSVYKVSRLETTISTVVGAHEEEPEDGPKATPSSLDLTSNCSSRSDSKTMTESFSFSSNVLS

On to `C[C@@H](O[C@H]1OCCN(Cc2n[nH]c(=O)[nH]2)[C@H]1c1ccc(F)cc1)c1cc(C(F)(F)F)cc(C(F)(F)F)c1` [Aprepitant/MK-869, Aprepitant, reference compound], for which, in assay [1] (setting [4]), the “ED50 for blockade of loperamide-induced retching, s.c. route (−1 h)” value is listed as over 1.25 mg/kg. In addition, in assay [1] (setting [5]), the “ED50 (95% confidence limits) for blockade of loperamide-induced retching, p.o. route (−2 h)” value is on record as 3.1 (1.9-5.0) mg/kg. Moreover, the “Ratio p.o./s.c. of ED50 for blockade of retching” value (“Ratio p.o./s.c. of ED50” below) in assay [1] (ferrets) is on record as under 2.5.

As to `O=C(c1cccc(C(=O)N2CCC(N3CCN([C@H]4CCN(C(=O)c5cc(C(F)(F)F)cc(C(F)(F)F)c5)[C@H](Cc5ccccc5)C4)CC3)CC2)c1)N1CCCC1` [Compound 45], the IC50 in assay [2] was 0.316 nM.

Take `COc1ccccc1CN[C@H]1CCCN[C@H]1c1ccccc1` [CP-99994, reference compound]: the “Ratio p.o./s.c. of ED50” value in assay [1] (ferrets) is over 16. Besides, the ED50 in assay [1] (setting [6]) is over 10 mg/kg; in assay [1] (setting [7]), 0.63 mg/kg. As for `COc1ccc(-n2cnnn2)cc1CN[C@H]1CCCN[C@H]1c1ccccc1` [GR-203040, (2S,3S)-(2-methoxy-5-tetrazol-1-ylbenzyl)(2-phenylpiperidin-3-yl)amine, reference compound], in assay [1] (ferrets), the “Ratio p.o./s.c. of ED50” value stood at 3.1. In addition, the ED50 in assay [1] (setting [6]) is 0.2 mg/kg; in assay [1] (setting [7]), 0.064 mg/kg. `C[C@@H](O[C@H]1OCCN(Cc2n[nH]nc2CN(C)C)[C@H]1c1ccc(F)cc1)c1cc(C(F)(F)F)cc(C(F)(F)F)c1` [Compound L-760735, reference compound]: in assay [1] (setting [4]), the “ED50 for blockade of loperamide-induced retching, s.c. route (−1 h)” value is reported as 0.31 mg/kg. For the molecule `Cc1nnsc1C(=O)N1CCC(N2CCN([C@H]3CCN(C(=O)c4cc(C(F)(F)F)cc(C(F)(F)F)c4)[C@H](Cc4ccccc4)C3)CC2)CC1` [Compound 142], the results for the IC50 in assay [2] and in assay [3] were 1.26 nM and 631 nM, respectively. As for `COc1ccccc1CN[C@H]1C2CCN(CC2)[C@H]1C(c1ccccc1)c1ccccc1` [CP-96345, reference compound], the 50% effective dose (ED50) in assay [1] (sc, 1 h, read-out: ED50 for blockade of loperamide-induced retching, s.c. route (−1 h)) is over 10 mg/kg. Regarding `CN(Cc1ccccc1)C(=O)C(Cc1ccc2ccccc2c1)NC(=O)[C@@H]1CCCN1C(=O)Nc1ccccc1[N+](=O)[O-]` (stereo partly drawn) [SDZ-NKT-343, 2-Nitrophenylcarbamoyl-(S)-prolyl-3-(2-naphthyl)alanyl-N-benzyl-N-methylamide, reference compound], the “ED50 (95% confidence limits) for blockade of loperamide-induced retching, p.o. route (−2 h)” value in assay [1] (setting [5]) is over 2.5 mg/kg.

`O=C(C1CCC1)N1CCC(N2CCN([C@H]3CCN(C(=O)c4cc(C(F)(F)F)cc(C(F)(F)F)c4)[C@H](Cc4ccccc4)C3)CC2)CC1` [Compound 102]: in assay [2], the IC50 is 1 nM.

With `Cc1nnsc1C(=O)N1CCC(N2CCN([C@H]3CCN(C(=O)c4cc(C(F)(F)F)cc(C(F)(F)F)c4)[C@H](Cc4ccccc4)C3)CC2)CC1` [Compound 143], the IC50 in assay [2] was 1 nM; in assay [3], 794 nM. As to `O=C(/C=C/c1cccnc1)N1CCC(N2CCN([C@H]3CCN(C(=O)c4cc(C(F)(F)F)cc(C(F)(F)F)c4)[C@H](Cc4ccccc4)C3)CC2)CC1` [Compound 110], the IC50 in assay [2] is 0.1 nM. As for `Cc1nnsc1C(=O)N1CCC(N2CCN([C@H]3CCN(C(=O)c4cc(C(F)(F)F)cc(C(F)(F)F)c4)[C@H](Cc4ccccc4)C3)CC2)CC1` [Compound 78], the IC50 was 0.794 nM in assay [2] and 398 nM in assay [3]. On to `O=C(c1cncc(N2CCCC2)c1)N1CCC(N2CCN(C3CCN(C(=O)c4cc(C(F)(F)F)cc(C(F)(F)F)c4)C(Cc4ccccc4)C3)CC2)CC1` (centres unmarked) [Compound 85], for which, in assay [2], the IC50 was 3.16 nM. As to `Cc1ccc(O)c(CN2CCC(N3CCN(C4CCN(C(=O)c5cc(C(F)(F)F)cc(C(F)(F)F)c5)C(Cc5ccccc5)C4)CC3)CC2)n1` (centres unmarked) [Compound 8], the IC50 in assay [2] was 0.631 nM.

For `O=C(c1cccc(N2CCCC2)c1)N1CCC(N2CCN([C@H]3CCN(C(=O)c4cc(C(F)(F)F)cc(C(F)(F)F)c4)[C@H](Cc4ccccc4)C3)CC2)CC1` [Compound 42], the IC50 in assay [2] was 2.51 nM.

For the molecule `O=C(C(c1ccccc1)N1CCC(N2CCN(C3CCN(C(=O)c4cc(C(F)(F)F)cc(C(F)(F)F)c4)C(Cc4ccccc4)C3)CC2)CC1)N1CCOCC1` (centres unmarked) [Compound 6], the IC50 in assay [2] was 1 nM. Regarding `O=C(c1cc(C(F)(F)F)cc(C(F)(F)F)c1)N1CC[C@H](N2CCN(C3CCN(C(=O)C4(c5ccccc5)CC4)CC3)CC2)C[C@H]1Cc1ccccc1` [Compound 108], the IC50 in assay [2] was 1.58 nM.
